Assay results published in patent US20240391930A1, “SPIROCYCLIC BICYCLIC MODULATORS OF CHOLESTEROL BIOSYNTHESIS AND THEIR USE FOR PROMOTING REMYELINATION” (GENENTECH, INC., priority 2021, published 2024).

Assays:
[1] = system: zymostenol accumulation in EpiSC-derived OPCs (EBP); test: GC/MS-based sterol profiling (zymostenol accumulation); format: cell-based; conditions: Mus musculus, 24 hours, 8 doses from 0.15 nM to 333 nM, read-out: Zymostenol GCMS EC50
Protocol: (§1) To assess effects of treatments on OPCs, all treatments were assayed in two or more independent platings of epiblast stem cell-derived OPCs (EpiSC). EpiSC-derived OPCs were obtained using in vitro differentiation protocols and culture conditions described previously (Najm et al, 2011, Nature Methods). OPCs were expanded and frozen down in aliquots. OPCs were thawed into growth conditions for at least one passage before use in further assays.
Sterols were monitored using a modified Folch wash protocol (Hubler et al, 2018, Nature). EpiSC-derived OPCs were plated at 100,000 cells per well in PO- and laminin-coated 96-well plates in N2B27 media without growth factors. After 24 hours, cells were rinsed with saline and plates were frozen. Cholesterol-d7 standard was then added to each well before drying under nitrogen stream and derivatization with 55 μl of bis(trimethylsilyl) trifluoroacetamide. After derivatization, 2 μl were analyzed by gas chromatography/mass spectrometry using an Agilent 5973 Network Mass Selective Detector equipped with a 6890 gas chromatograph system and a HP-5MS capillary column (30 m×0.25 mm×[…]). Samples were analyzed in full scan mode using electron impact ionization; ion fragment peaks were integrated to calculate sterol abundance, and quantitation was relative to cholesterol-d7. The following ion fragments were used to quantitate each metabolite: cholesterol-d7 (465), FF-Mas (482), cholesterol (368), zymostenol (458), zymosterol (456), Desmosterol (456, 343), 7-dehydrocholesterol (456, 325), lanosterol (393), lathosterol (458), 14-dehydrozymostenol (456, 351). […] All standards were obtained from Avanti Polar Lipids unless otherwise indicated. Calibration curves were generated by injecting varying concentrations of sterol standards and maintaining a fixed amount of cholesterol-D7. For normalized zymostenol accumulation results, the total amount of zymostenol measured after drug treatment was divided by the total amount of zymostenol accumulated after 24 hr treatment with 100 nM positive control reference.

EpiSC-derived OPCs = test: In vitro phenotypic screening of OPCs (MBP high-content imaging); format: cell-based; conditions: Mus musculus, 72 h; percentage of MBP-positive oligodendrocytes, 3 days, 0.5 nM to 1000 nM; read-out: OPC EC50
Protocol: as §1
EpiSC-derived OPCs were grown and expanded in poly-L-ornithine (PO) and laminin-coated flasks in N2B27 media (DMEM/F12 (Gibco), N2-MAX (R&D Systems), B-27 (ThermoFisher), and GlutaMax (Gibco)) supplemented with FGF2 ([…], R&D systems, 233-FB-025) and PDGF-AA ([…], R&D systems, 233-AA-050) before harvesting for experiments. The cells were seeded onto poly-L-ornithine or poly-D-lysine coated CellCarrier Ultra plates (PerkinElmer) coated with laminin (Sigma, L2020) at a density of 150,000/cm^2 in N2B27 media without growth factors. For dose-response testing, a 1000× compound stock in dimethyl sulphoxide (DMSO) was added to assay plates, resulting in 8-point dose curves with final concentrations between 1000 nM and 0.5 nM. Positive controls and DMSO vehicle controls were included in each assay plate. Cells were incubated under standard conditions (37° C., 5% CO2) for 3 days and fixed with 4% paraformaldehyde (PFA) in phosphate buffered saline (PBS) for 20 min. Fixed plates were washed with PBS, permeabilized with 0.1% Triton X-100, and blocked with 10% donkey serum (v/v) in PBS for 40 min. Then, cells were labelled with MBP antibodies (Abcam, ab7349; 1:200) for 2 h at room temperature, washed with PBS, and stained with Alexa Fluor conjugated secondary antibodies (1:500) for 45 min. Nuclei were visualized by DAPI staining (Sigma; 1 μg/ml), followed by further PBS washes.
Cells and cell culture plates were imaged on the Operetta High Content Imaging and Analysis system (PerkinElmer). Analysis (PerkinElmer Harmony and Columbus software) began by identifying intact nuclei stained by DAPI. The peri-nuclear region of each cell was then cross-referenced with the […] (MBP) stain to identify oligodendrocyte nuclei, and from this the percentage of oligodendrocytes was calculated.

[2] = target: T1, human emopamil binding protein and human 7-dehydrocholesterol reductase (hEBP-DHCR7) (Homo sapiens, UniProt Q15125); test: hEBP-DHCR7 radioligand filtration binding assay; conditions: membranes of HEK293 co-expressing hEBP and DHCR7; [3H] 2-thia-6-azaspiro[3.4]octane radioligand; 8 doses 0.06 to 5000 nM
T1 construct: expressed in transfected cells; host or cells: HEK 293 cells, transient transfection with 2 DNA constructs
T1 sequence (Q15125 whole entry): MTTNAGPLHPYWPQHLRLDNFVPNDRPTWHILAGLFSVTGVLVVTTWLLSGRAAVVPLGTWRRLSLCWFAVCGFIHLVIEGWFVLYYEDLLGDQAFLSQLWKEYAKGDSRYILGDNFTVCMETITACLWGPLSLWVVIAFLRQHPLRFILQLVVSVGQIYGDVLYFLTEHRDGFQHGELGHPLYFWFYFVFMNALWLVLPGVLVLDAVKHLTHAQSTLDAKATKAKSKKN
Protocol: Membrane Preparation: human emopamil binding protein and human 7-dehydrocholesterol reductase co-expressing cells were generated by transient transfecting host human embryonic kidney (HEK) 293 cells with 2 DNA constructs containing each protein's coding sequence. Cells were suspension cultured at 37° C. with 5% CO2 in […] 293 Expression Medium (Thermofisher). Whole cell membrane was prepared by harvesting the cell pellet, adding cold membrane buffer (50 mM Tris, pH7.5, lx Roche COMPLETE EDTA-free protease inhibitor cocktail) 10 times volume of the cell pellets weight, lysing cell pellet on ice by using Dounce homogenizer, spinning at 200 g 4° C. for 15 min, collecting supernatant and spinning again at 25000 g 4° C. for 50 min, transferring pellet to Dounce homogenizer, re-suspending pellet by homogenizing in membrane buffer on ice to reach ˜25 mg/mL, then keeping whole cell membrane aliquots at −80° C.
Compounds were prepared in a 96-well U bottom plate using an Echo550 machine and 10 mM compound DMSO stock solution, followed by an 8-dose 5-fold serial dilutions protocol with final testing compound concentration ranging from 0.06 to 5000 nM, with DMSO back fill to 100 nL/well and n=2. […] The UniFilter-96 GF/B plates were pre-treated by adding 50 µl/well of 0.3% (v/v) PEI to UniFilter-96 GF/B plates. The plates were sealed and incubated at 4° C. for 3 hrs. Then, the plates were washed with ice-cold assay buffer 3 times. The radioligand binding assay was prepared by adding assay buffer diluted hEBP-DHCR7 membrane at 66.7 μg/ml×150 l/well into the 96-well compound plate to reach 10 μg membrane per well. Then, the assay buffer diluted [3H]—((S)-6-(2-Methyl-3-(6-(trifluoromethyl)pyridin-3-yl)propyl)-2-thia-6-azaspiro[3.4]octane 2,2-dioxide or (R)-6-(2-Methyl-3-(6-(trifluoromethyl)pyridin-3-yl)propyl)-2-thia-6-azaspiro[3.4]octane 2,2-dioxide) was added at 25 nM×50 l/well. Following this, the plate was centrifuged at 1000 rpm for 30 secs. The plate was then sealed and agitated at 600 rpm at 22° C. for 5 min, and then incubated at 22° C. for 3 hrs. The incubation was stopped by transferring the binding solution to the pre-treated UniFilter-96 GF/B plate, vacuum filtrated, and then washed four times with ice-cold assay buffer. Following this, the plates were dried at 37° C. for 45 min. The plates were then sealed at the bottom. 40 µl/well of scintillation cocktail was added to the plates. A MicroBeta2 microplate counter was then used to read the plate and analyze the data. For reference and test compounds, the results are expressed as % Inhibition, using the normalization equation: N=100−100×(U−C2)/(C1−C2), where U is the unknown value, C1 is the average of high controls, and C2 is the average value of low controls. The IC50 was determined by fitting percentage of inhibition as a function of compound concentrations with Hill equation using XLfit. Results are expressed as hEBP-DHCR7 Ki (uM) in Table 4. Ki was calculated as described above; * indicates isolated isomer or isomers, but that the stereochemistry has not been assigned.

Row | Compound | EC50 [1] [nM] | EC50 (EpiSC-derived OPCs) [nM] | Ki [2] [nM]
1 | CC(C)n1nc(-c2cncc(OC(F)F)c2)cc1[C@H]1[C@@H]2C[C@H](N3CCC4(CC3)CS(=O)(=O)C4)C[C@@H]21 (single isomer, unassigned) [Compound 46*] | 24 | 44 | 34.6
2 | CC(C)n1nc(C(F)(F)F)cc1[C@H]1[C@@H]2C[C@H](N3CCC4(CC3)CS(=O)(=O)C4)C[C@@H]21 (single isomer, unassigned) [Compound 44*] | 6.8 | 14 | 27
3 | C[C@H](C(F)F)n1nc(C(F)(F)F)cc1[C@H]1[C@@H]2C[C@@H](N3CCC4(CC3)CS(=O)(=O)C4)C[C@@H]21 (racemic) [Compound 70*, 7-((1R,3S,5S,6r)-6-(1-((R)-1,1-difluoropropan-2-yl)-3-(trifluoromethyl)-1H-pyrazol-5-yl)bicyclo[3.1.0]hexan-3-yl)-2-thia-7-azaspiro[3.5]nonane 2,2-dioxide and 7-((1R,3R,5S,6r)-6-(1-((S)-1,1-difluoropropan-2-yl)-3-(trifluoromethyl)-1H-pyrazol-5-yl)bicyclo[3.1.0]hexan-3-yl)-2-thia-7-azaspiro[3.5]nonane 2,2-dioxide] | 9.4 | 24 | 55.3
4 | CCn1nc(-c2cncc(C(F)(F)F)c2)cc1[C@H]1[C@@H]2C[C@@H](N3CCC4(CC3)CS(=O)(=O)C4)C[C@@H]21 (single isomer, unassigned) [Compound 53*] | 6.8 | 33 | 97.3
5 | CCn1nc(-c2cncc(F)c2)cc1[C@H]1[C@@H]2C[C@H](N3CCC4(C3)CS(=O)(=O)C4)C[C@@H]21 (single isomer, unassigned) [Compound 69*] | 4.4 | 27 | 34.3
6 | CC(C)n1nc([C@H]2CC[C@](O)(C(F)(F)F)CC2)cc1[C@H]1[C@@H]2C[C@@H](N3CCC4(C3)CS(=O)(=O)C4)C[C@@H]21 (single isomer, unassigned) [Compound 104*] | 25.8 | 175 | 164
7 | CC(C)n1nc(-c2cccc(C(F)(F)F)c2)nc1[C@H]1[C@@H]2C[C@@H](N3CCC4(C3)CS(=O)(=O)C4)C[C@@H]21 [Compound 51, 6-((1R,3s,5S,6r)-6-(1-Isopropyl-3-(3-(trifluoromethyl)phenyl)-1H-1,2,4-triazol-5-yl)bicyclo[3.1.0]hexan-3-yl)-2-thia-6-azaspiro[3.4]octane 2,2-dioxide] | 6.4 | 37 | 11.7
8 | CC(C)(C)n1nc(C(F)(F)F)cc1[C@H]1[C@@H]2C[C@H](N3CCC4(C3)CS(=O)(=O)C4)C[C@@H]21 (single isomer, unassigned) [Compound 58] | 3.3 | 19 | 12
9 | O=S1(=O)CC2(CCN([C@@H]3C[C@@H]4[C@H](C3)[C@H]4c3cc(C(F)(F)F)nn3CC(F)F)C2)C1 (single isomer, unassigned) [Compound 90*] | 21 | 190 | 70.5
10 | CCn1nc(-c2cncc(F)c2)cc1[C@H]1[C@@H]2C[C@@H](N3CCC4(C3)CS(=O)(=O)C4)C[C@@H]21 (single isomer, unassigned) [Compound 68*] | 14 | 60 | 86.2
11 | CC(C)n1nc(-c2ccc(C(F)(F)F)nc2)cc1[C@H]1[C@@H]2C[C@@H](N3CCC4(C3)CS(=O)(=O)C4)C[C@@H]21 (single isomer, unassigned) [Compound 13] | 6.5 | 17 | 37.1
12 | CC(C)n1nc(-c2cncc(OC(F)F)c2)cc1[C@H]1[C@@H]2C[C@@H](N3CCC4(CC3)CS(=O)(=O)C4)C[C@@H]21 (single isomer, unassigned) [Compound 45*] | 8.1 | 14 | 131
13 | CC(C)n1nc(-c2cccc(C(F)(F)F)c2)nc1[C@H]1[C@@H]2C[C@H](N3CCC4(CC3)CS(=O)(=O)C4)C[C@@H]21 [Compound 74, 7-((1R,3r,5S,6r)-6-(1-isopropyl-3-(3-(trifluoromethyl)phenyl)-1H-1,2,4-triazol-5-yl)bicyclo[3.1.0]hexan-3-yl)-2-thia-7-azaspiro[3.5]nonane 2,2-dioxide] | 3.9 | 13 | 
14 | CC(C)(C)n1nc(C(F)(F)F)cc1[C@H]1[C@@H]2C[C@@H](N3CCC4(CC3)CS(=O)(=O)C4)C[C@@H]21 (single isomer, unassigned) [Compound 55] | 3 | 3.3 | 
15 | CC(C)(C)n1nc(C(F)(F)F)cc1[C@H]1[C@@H]2C[C@H](N3CCC4(CC3)CS(=O)(=O)C4)C[C@@H]21 [Compound 56, 7-((1R,3r,5S,6r)-6-(1-(tert-butyl)-3-(trifluoromethyl)-1H-pyrazol-5-yl)bicyclo[3.1.0]hexan-3-yl)-2-thia-7-azaspiro[3.5]nonane 2,2-dioxide] | 5.7 | 19 | 
16 | CC(C)n1nc(C(F)(F)F)cc1[C@H]1[C@@H]2C[C@@H](N3CCC[C@@]4(CCS(=O)(=O)C4)C3)C[C@@H]21 (single isomer, unassigned) [Compound 92*] | 45.1 | 58.4 | 
